Assay results reported in patent publication US10017506B2, “ATX modulating agents” (BIOGEN MA INC., priority 2012, dated 2018).
pIC50: −log10 of the molar value.

Molecular target: T1, Human ATX protein (Homo sapiens, UniProt Q13822)
T1 construct: made in house
Assay: ATX biochemical FRET assay with FS-3 substrate
Conditions: FRET substrate FS-3 2 μM, ATX 1.0 μg/mL, 30 minutes pre-incubation, 2 hours at room temperature; read-out: IC50
Method in brief: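 Enzyme at 1.0 μg/mL final, pre-incubated with compound (10-point, 3-fold series) for 30 min at RT in Tris pH 7.4 buffer with NaCl, KCl, CaCl2, MgCl2 and 1 mg/mL fatty-acid-free BSA. After FS-3 addition, 2 h at RT protected from light; fluorescence at 485/538 nm.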

pIC50 | Structure (SMILES)
≥ 7.00 | CCC(N[C@H]1CC[C@@H](C(=O)O)CC1)c1ccc2ccc(O[C@H]3CC[C@@H](CC)CC3)c(C(F)(F)F)c2c1 (stereo partly drawn) [Example 145, cis-4-((1-(7-((cis-4-ethylcyclohexyl)oxy)-8-(trifluoromethyl)naphthalen-2-yl)propyl)amino)cyclohexanecarboxylic acid]
≥ 6.60 | CCC(N[C@H]1CC[C@@H](C(=O)O)CC1)c1ccc2ccc(O[C@H]3CC[C@@H](C)CC3)c(C(F)(F)F)c2c1 (stereo partly drawn) [Example 146, cis-4-((1-(7-((cis-4-methylcyclohexyl)oxy)-8-(trifluoromethyl)naphthalen-2-yl)propyl)amino)cyclohexanecarboxylic acid]
≥ 7.00 | CCC(N[C@H]1CC[C@@H](C(=O)O)CC1)c1ccc2ccc(O[C@H]3CC[C@@H](C(F)(F)F)CC3)c(C(F)(F)F)c2c1 (stereo partly drawn) [Example 147, cis-4-((1-(8-(trifluoromethyl)-7-((cis-4-(trifluoromethyl)cyclohexyl)oxy)naphthalen-2-yl)propyl)amino)cyclohexanecarboxylic acid]
≥ 6.60 | CC(C)(C)[C@H]1CC[C@H](Nc2cc3cc(C(=O)NC4CCCC(C(=O)O)C4)ccc3cn2)CC1 (stereo partly drawn) [Example 150, 3-(3-((trans-4-(tert-butyl)cyclohexyl)amino)isoquinoline-6-carboxamido)cyclohexanecarboxylic acid]
≥ 7.00 | CC(C)(C)[C@H]1CC[C@H](Nc2cc3cc(C(=O)NC45CCC(C(=O)O)(CC4)CC5)ccc3cn2)CC1 [Example 152, 4-(3-((trans-4-(tert-butyl)cyclohexyl)amino)isoquinoline-6-carboxamido)bicyclo[2.2.2]octane-1-carboxylic acid]
≥ 7.00 | CC(C)(C)[C@H]1CC[C@H](Nc2cc3cc(C(=O)N[C@H]4CC[C@@H](C(=O)O)CC4)ccc3cn2)CC1 [Example 154, cis-4-(3-((trans-4-(tert-butyl)cyclohexyl)amino)isoquinoline-6-carboxamido)cyclohexane carboxylic acid]
≥ 7.00 | CC(C)(C)[C@H]1CC[C@H](Nc2cc3cc(C(=O)N[C@H]4CC[C@H](C(=O)O)CC4)ccc3cn2)CC1 [Example 155, trans-4-(3-((trans-4-(tert-butyl)cyclohexyl)amino)isoquinoline-6-carboxamido)cyclohexanecarboxylic acid]

Same assay, conditions: IC50, FRET substrate FS-3 2 μM, ATX 1.0 μg/mL, 30 minutes pre-incubation, 2 hours at room temperature

Structure (SMILES) | pIC50
CC[C@H]1CC[C@@H](Oc2ccc3ccc([C@@H](C)N4C5CCC4CC(C(=O)O)C5)cc3c2C(F)(F)F)CC1 (stereo partly drawn) [Example 144b, 8-((R)-1-(7-((cis-4-ethylcyclohexyl)oxy)-8-(trifluoromethyl)naphthalen-2-yl)ethyl)-8-azabicyclo[3.2.1]octane-3-carboxylic acid] | ≥ 7.00
